Assays:
[1] = in vivo
Procedure: (§1) In a Pilot PK Cohort prior to the dose-escalation in Part 1a (monotherapy), the PK of Compound Ia was explored after a single, oral dose of 25 mg in 2 participants to address the PK uncertainty.
(§2) Blood samples to evaluate concentrations of Compound Ia and cobimetinib (and its metabolite[s], if appropriate) will be collected. The date and time of each sample collection will be recorded. Compound Ia and cobimetinib levels will be analyzed by using validated LC-MS/MS assays. […] Dedicated PK samples will be collected for the Pilot PK Cohort and the Food Cohort at pre-defined timepoints.
(§3) PK parameters for Compound Ia administered alone and in combination with cobimetinib will be derived from the plasma concentrations and will be listed and summarized using descriptive statistics (such as mean, standard deviation, coefficient of variation, median, minimum, and maximum). The PK parameters will include but are not limited to area under the curve (AUC), maximum concentration (Cmax), time of maximum concentration observed (Tmax) and, apparent oral clearance (CL/F), volume of distribution at steady-state (Vss/F), and terminal half-life (t½). Estimation of PK parameters may be performed using standard non-compartmental methods and/or population PK modeling. If data allow, other methods may be used for data analysis, e.g., PK and PD data may be used to develop a population PK/PD model. Individual and mean plasma Compound Ia concentration versus time data will be tabulated and plotted by dose levels. […] The linearity of PK (AUC and Cmax) will be investigated. To assess the FE on the PK of Compound Ia, PK parameters (such as AUC, Cmax, Tmax and t1/2) will be analyzed following oral administration of Compound Ia while either fed (high-fat meal) or fasted for a minimum of 6 participants. Estimation of PK parameters may be performed using standard non-compartmental methods and/or population PK modeling. Furthermore, Compound Ia CSF concentrations (where applicable) might be presented by listings and descriptive summary statistics (such as mean, standard deviation, coefficient of variation, median, minimum, and maximum). If data allow, other methods may be used for data analysis, e.g., PK and PD data may be used to develop a population PK/PD model.

clinical = conditions: human, in vivo, po, 25 mg
Procedure: as §1, §2, §3

[2] = human, in vivo
Excerpt: Participants in the Pilot PK Cohort were enrolled and treated in a staggered manner (at least 3 days between the first and second participant).
The dosing regimen will then change to a twice-daily (BID) or three-times-daily (TID) administration, depending on new emerging PK data.
The number of patients with leptomeningeal involvement of their tumours is capped at 33% in each cohort. To avoid exposing participants to undue risk of toxicity, the maximum allowable dose increment recommended by the mCRM EWOC (modified continual reassessment method escalation with overdose control) design will be 100% (i.e., a 2-fold increase). […] The mCRM-EWOC will be adapted to the new dosing regimen.
Safety assessments will consist of monitoring and recording AEs, including serious AEs (SAEs) and non-SAEs of special interest (NSAESI); measurement of protocol-specified safety laboratory assessments; measurement of protocol-specified vital signs, ECGs; and other protocol-specified tests that are deemed critical to the safety evaluation of the study.

[3] = Solubility / biopharmaceutics classification; type: physicochemical; conditions: for solubility across the physiological pH range: behaves like a weak acid
[4] = Food Cohort: food effect on PK (high-fat meal vs fasted); type: in vivo, human; conditions: fed cohort vs fasted, preliminary PK data, FIG. 3
Excerpt: Part 1—Food Cohort: The food effect (FE) on the PK of Compound Ia will be evaluated in Part 1a (Compound Ia monotherapy) or in Part 1b (Compound Ia in combination with cobimetinib) at the MTD and/or RP2D, or at dose levels close to the RP2D and/or MTD of Compound Ia with or without cobimetinib. For exploring the effect of food intake, participants will receive Compound Ia after a high-fat meal (Group 1) or following a 10-hour fast (Group 2) using a parallel design. For this pilot FE evaluation, a minimum of 6 evaluable participants will be enrolled.
Meals and Dietary Restrictions: Generally, for participants receiving Compound Ia, no dietary restrictions are foreseen. A preliminary assessment of the FE (food effect) on the PK of Compound Ia will be done in Part 1 to inform about potential dietary requirements for the dose expansion (Part 2) in case a FE is observed. For participants receiving cobimetinib, the use of grapefruit juice, a potent CYP3A4 enzyme inhibitor, is prohibited during the study and for 30 days after the last dose of study treatment. For Participants in Food Cohort in the Food Cohort of Part 1, the effect of food on the systemic exposure of Compound Ia will be explored close to the MTD and/or at RP2D or relevant dose levels for a minimum of 6 participants. […] The food intake during the high-fat meal plus calories and fat content will be recorded.

[5] = Non-clinical safety benchmark dose in rats

Structure (SMILES): Cn1cnc2ccc(Oc3c(F)ccc(NS(=O)(=O)N4CC[C@@H](F)C4)c3C#N)cc2c1=O [Compound Ia, (3R)—N-[2-cyano-4-fluoro-3-(3-methyl-4-oxo-quinazolin-6-yl)oxy-phenyl]-3-fluoro-pyrrolidine-1-sulfonamide]
- safety margin based on unbound AUC0-∞ to the safety benchmark dose of 200 mg/kg/day in rat [1]: 22 fold
- safety margin based on unbound Cmax to the safety benchmark dose of 200 mg/kg/day in rat [1]: 4 fold
- safety margin based on preliminary unbound AUC0-∞ to the safety benchmark dose of 200 mg/kg/day in rats ([1]; rat): 174 fold
- safety margin based on preliminary unbound Cmax to the safety benchmark dose of 200 mg/kg/day in rats ([1]; rat): 32 fold
- half-life (clinical): 120 to 240 min
- drug related Grade 3 adverse events [2]: less than 25%
- biopharmaceutics classification system class [3]: class 2
- solubility [3]: low and pH dependent solubility
- solubility across the physiological pH range [3]: purely soluble at low pH with increasing solubility at neutral and alkaline pH
- solubility across the physiological pH range ([3]; listed as compound of formula (I)): poorly soluble at low pH with increasing solubility at neutral and alkaline pH
- effect of food on AUCINF (AUC0-∞) [4]: did not significantly alter
- effect of food on Cmax [4]: lower Cmax
- NOAEL ([5]; rat, in vivo): 200 mg/kg/day
- safety benchmark dose (toxic dose in 10% of animals) ([5]; rats): 200 mg/kg/day

From patent US20250339432A1, “QUINAZOLINONE COMPOUND AS BRAF INHIBITOR FOR THE TREATMENT OF ADVANCED SOLID CANCER OR METASTASES” (Hoffmann-La Roche Inc., priority 2022, published 2025)
